{"source": "patent US12257326B2", "about": "“TCO conjugates and methods for delivery of therapeutic agents” (THE REGENTS OF THE UNIVERSITY OF CALIFORNIA, priority 2014, dated 2025)", "key": {"[1]": {"assay": "In-vivo kinetic multiple dose evaluation of fluorescence (IVIS Spectrum)", "set-up": "species or system mice", "details": "50 nmoles per tail vein injection; Tz-Me-gel group vs no gel and unmodified alginate gel; paired T-test, n=3", "protocol": "Three mice were evaluated after each injection of 50 nmoles of TCO-R-Rhodamine through tail vein injection. The mice were treated as described above their images. […] The “released” subject received an injection in the subcutaneous back of Tz-Me-gel. The “gel control” subject received an injection in the subcutaneous back of alginate gel. The mice were evaluated with an IVIS Spectrum machine after 5-10 minutes and 110-150 minutes after each dose of fluorophore.\nCompared by paired T-test (n=3).\n(§1) For in-vivo experiments, 800 μl of 2.5% alginate solution were mixed with 200 μl of supersaturated […] solution (0.21 g Ca(SO4)2/ml ddH2O). The solutions were mixed for 30 s using a three-way stopcock to achieve a final alginate concentration of 2%. The mixture was immediately injected to the animal in the desired amount."}, "[2]": {"assay": "In-vivo kinetic biodistribution of fluorescence after TCO-R-Rhodamine injection", "set-up": "species or system mice", "details": "Tz-Me-Gel (released) vs negative control (no gel injection)", "protocol": "The bar graph extrapolates the data to a presumed total amount achieved in 8 hours.\nas §1\nAfter IACUC approval, in-vivo real-time biodistribution studies of fluorescence were carried out in nu/nu mice (n=2 per condition) by injecting either nothing or a type of alginate (control vs Tz-Gel). Then subjects received a tail-vein injection of TCO-R-F or TCO-NR-F. The negative controls were: 1. No gels with TCO-R-F (Negative control, mouse 1); 2. control alginate with TCO-R-F (Gel control, mouse 4). The two experimental groups were Tz-gel and either TCO-R-F (Released protocol, mouse 2) or TCO-NR-F (Immobilized protocol, mouse 3). Fluorescence was measured with an IVIS Spectrum (Perkin Elmer, MA) and reported in radiance."}}}
{"smiles": "CN(C)c1ccc2c(-c3ccc(C(=O)NCCNC(=O)OC4/C=C/CCCCC4)cc3C(=O)O)c3ccc(=[N+](C)C)cc-3oc2c1", "note": "(centres unmarked) [TCO-R-Rhodamine, (E)-5-((2-(((cyclooct-2-cn-1-yloxy)carbonyl)amino)ethyl)carbamoyl)-2-(3-(dimethyl-Π^4-azanylidene)-6-(dimethylamino)-3H-xanthen-9-yl)benzoic acid]", "values": [{"measurement": "average fluorescence at 5-10 minutes vs 110-150 minutes after second, third & fourth injection", "setting": "[1]", "value": "statistically higher"}, {"measurement": "dose reflected by the area under the curve of fluorescence, extrapolated to total amount in 8 hours", "setting": "[2]", "value": "almost doubled"}]}
